Experimental data as given in publication PMC8342458, “GluN2A and GluN2B NMDA receptors use distinct allosteric routes” (Nature Communications, 2021).
“And” between values parts separate entries of the source, which are not always exact repeats. Equal entries are not always repeated. Where two headings read alike, the source gives them in different places.

How the values were obtained:
[1] = biological target: T1, wild-type (wt) GluN1/GluN2A receptors (Rattus norvegicus, UniProt P35439+Q00959); assay: TEVC recordings in Xenopus oocytes, allosteric modulator sensitivity; assay type: cell-based; settings: for Izn/Io 1 nM: 1 nM zinc; for Izn/Io 10 nM: 10 nM zinc; for Izn/Io 50 nM: 50 nM zinc; for Izn/Io 500 nM: 500 nM zinc; for Izn/Io 1000 nM: 1000 nM zinc
T1 construct: For full-length multimeric membrane-embedded receptors studied in cellulo, as done in the present work; expressed in transfected cells; host or cells: Xenopus laevis oocytes (nuclear cDNA injection, pcDNA3 plasmids)
T1 sequence (Q00959 23-1464, other chains not shown): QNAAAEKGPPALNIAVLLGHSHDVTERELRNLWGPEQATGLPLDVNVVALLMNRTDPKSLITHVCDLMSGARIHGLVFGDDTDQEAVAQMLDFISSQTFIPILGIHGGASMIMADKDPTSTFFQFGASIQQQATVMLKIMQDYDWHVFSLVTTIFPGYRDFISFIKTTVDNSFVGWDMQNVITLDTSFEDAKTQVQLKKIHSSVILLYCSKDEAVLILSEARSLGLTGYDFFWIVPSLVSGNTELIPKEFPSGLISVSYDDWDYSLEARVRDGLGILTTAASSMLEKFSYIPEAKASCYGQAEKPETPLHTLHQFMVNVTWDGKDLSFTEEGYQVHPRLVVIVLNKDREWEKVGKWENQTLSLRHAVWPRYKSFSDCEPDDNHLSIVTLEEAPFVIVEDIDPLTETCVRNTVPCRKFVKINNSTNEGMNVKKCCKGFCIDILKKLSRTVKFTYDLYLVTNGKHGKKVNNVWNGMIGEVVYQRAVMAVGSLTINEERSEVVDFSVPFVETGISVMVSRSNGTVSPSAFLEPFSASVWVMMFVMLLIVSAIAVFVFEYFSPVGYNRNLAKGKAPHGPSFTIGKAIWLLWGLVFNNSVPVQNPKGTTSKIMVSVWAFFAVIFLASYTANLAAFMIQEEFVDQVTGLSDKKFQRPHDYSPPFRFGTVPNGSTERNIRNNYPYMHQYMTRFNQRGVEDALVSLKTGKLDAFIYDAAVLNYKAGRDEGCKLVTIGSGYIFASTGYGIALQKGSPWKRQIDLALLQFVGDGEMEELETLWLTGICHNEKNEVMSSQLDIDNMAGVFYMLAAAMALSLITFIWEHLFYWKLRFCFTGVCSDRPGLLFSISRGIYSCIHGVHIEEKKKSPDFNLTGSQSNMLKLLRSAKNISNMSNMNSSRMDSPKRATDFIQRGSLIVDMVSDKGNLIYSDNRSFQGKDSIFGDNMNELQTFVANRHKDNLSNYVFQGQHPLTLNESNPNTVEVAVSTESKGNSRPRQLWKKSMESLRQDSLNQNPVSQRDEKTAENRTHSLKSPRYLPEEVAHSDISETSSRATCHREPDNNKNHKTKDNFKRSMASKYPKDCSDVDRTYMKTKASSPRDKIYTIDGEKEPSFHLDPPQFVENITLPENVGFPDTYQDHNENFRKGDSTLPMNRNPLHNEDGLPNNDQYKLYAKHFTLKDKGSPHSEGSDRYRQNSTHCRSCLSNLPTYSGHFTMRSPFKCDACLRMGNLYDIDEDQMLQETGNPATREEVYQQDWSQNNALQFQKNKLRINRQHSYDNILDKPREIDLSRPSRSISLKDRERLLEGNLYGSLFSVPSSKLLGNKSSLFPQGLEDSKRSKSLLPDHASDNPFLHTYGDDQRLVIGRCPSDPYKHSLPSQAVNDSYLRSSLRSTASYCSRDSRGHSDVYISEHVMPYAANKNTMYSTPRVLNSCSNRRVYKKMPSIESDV
Description: (§1) The pcDNA3-based expression plasmids for rat GluN1-1a (named GluN1 herein), rat GluN2A, and mouse GluN2B (also known as ε2) subunits, Pfu-based site-directed mutagenesis strategy, and sequencing procedure have been described previously[68],[69]. Incorporation of the unnatural amino acids (UAAs) AzF and BzF into NMDARs was performed using the genetic code expansion methodology as previously described[52],[53],[83]. The plasmid pSVB.Yam carrying the gene encoding the amber suppressor tRNA derived from B. stearothermophilus Tyr-tRNACUA, while the aminoacyl-tRNA synthetases (aaRS) construction for AzF and BzF derived from E. coli TyrRS[84],[85].
(§2) Recombinant NMDARs were expressed in Xenopus laevis oocytes after nuclear injection of 36 nl of a mixture of cDNAs (at 10–30 ng/μl) encoding various GluN1 and GluN2 subunits (ratio 1:1). Oocytes were prepared, injected, incubated, and voltage-clamped as described previously. For UAA incorporation, oocytes were co-injected with 36 nl of a cDNA mixture encoding for of GluN1, GluN2, Yam, and aaRS as follows, unless otherwise indicated in the text: GluN1-K178amber (120 ng/μl), GluN2A (80 ng/µl) or GluN2B (120 ng/μl), Yam (10 ng/μl), AzF-RS (5 ng/μl). After injection, oocytes were incubated at 19 °C in a Barth solution containing (in mM) 88 NaCl, 1 KCl, 0.33 Ca(NO3)2, 0.41 CaCl2, 0.82 MgSO4, 2.4 NaHCO3, 10 HEPES (pH adjusted to 7.6 with NaOH) supplemented with gentamicin ([…]) and the NMDAR glutamate binding site competitive antagonist D-APV (50 μM). AzF and BzF were added to the incubation medium at final concentrations of 1 mM and 2 mM, respectively.
(§3) For all experiments, except those on pH and spermine sensitivity, the standard external solution contained (in mM): 100 NaCl, 0.3 BaCl2, and 5 HEPES (pH adjusted to 7.3 with KOH). […] For the pH and spermine sensitivity experiments, an external solution enriched in HEPES was used to insure proper pH buffering. Unless otherwise mentioned, NMDAR-mediated currents were induced by simultaneously applications of saturating concentrations of glutamate and glycine (100 μM each). Glutamate and glycine dose-response curves (DRC) were performed in the presence of 100 µM glycine and 100 µM glutamate, respectively. Recordings were performed at a holding potential of −60 mV and at room temperature. Data were collected and analyzed using Clampex 10.5 and Clampfit 10.5 (Molecular Devices), respectively, and fitted using KaleidaGraph 4.0 (Synergy software).
(§4) EC50 and nH were fitted as free parameters. […] For proton DRC, corrections for small shifts in the reference potential of bath electrodes and analysis of the data were performed as previously described. Spermine experiments were performed and analyzed as previously described. In brief, spermine sensitivity was assessed at pH 6.5 and at a holding potential of −30 mV to maximize the spermine induced potentiation. […] EC50, a and nH were set as free parameters. MK-801 is an NMDAR open channel blocker with slow reversibility and, consequently, the rate at which MK-801 inhibits NMDAR responses depends on the level of channel activity, that is, channel open probability (Po). Based on this principle, MK-801 is classically used to estimate the level of NMDAR channel activity in macroscopic whole-cell recordings[36],[47],[56],[86],[87]. Note, however, that MK- 801 inhibition kinetics can index relative, not absolute, Po. MK-801 solutions (10 nM for GluN2A-containing receptors and 50 nM for GluN2B-containing receptors) were prepared by dilution of a stock solution (50 mM) into the agonist containing solutions. MK-801 time constants of inhibition (τon) were obtained by fitting currents with a single-exponential component to a time window corresponding to 10–90% of maximum inhibition. On-rate (kon) constants were then calculated assuming a pseudo first-order reaction scheme: kon = 1 / ([MK-801]*τon).

[2] = biological target: T2, GluN1-K178AzF/GluN2A receptors (Rattus norvegicus, UniProt P35439+Q00959); assay: TEVC recordings in Xenopus oocytes, modulator sensitivity before and after UV photocrosslinking; assay type: cell-based; settings: read-out: Zn2+ IC50
T2 construct: For full-length multimeric membrane-embedded receptors studied in cellulo, as done in the present work; expressed in transfected cells; host or cells: Xenopus laevis oocytes, co-injected with amber suppressor tRNA (Yam) and AzF-RS
Description: as §1, §2, §3, §4

[3] = biological target: T3, GluN1-K178AzF/GluN2A receptors (Rattus norvegicus, UniProt P35439+Q00959, K178F); assay: as above; assay type: cell-based; settings: for Izn/Io 1 nM: 1 nM zinc; for Izn/Io 10 nM: 10 nM zinc; for Izn/Io 1000 nM: 1000 nM zinc
T3 construct: For full-length multimeric membrane-embedded receptors studied in cellulo, as done in the present work; expressed in transfected cells; host or cells: Xenopus laevis oocytes, co-injected with amber suppressor tRNA (Yam) and AzF-RS
T3 sequence (Q00959 23-1464, other chains not shown): as above
Description: as §1, §2, §3, §4

[4] = biological target: T4, GluN1-K178AzF/GluN2B receptors (UniProt P35439+Q01097); assay: as above; assay type: cell-based, rat (GluN1), mouse (GluN2B); settings: read-out: Zn2+ IC50
T4 construct: For full-length multimeric membrane-embedded receptors studied in cellulo, as done in the present work; expressed in transfected cells; host or cells: Xenopus laevis oocytes, co-injected with amber suppressor tRNA (Yam) and AzF-RS
Description: as §1, §2, §3, §4

[5] = biological target: T5, GluN1-N521C-L777C/GluN2A-E516C-L780C (CC/CC) receptors (Rattus norvegicus, UniProt P35439+Q00959, E516C/L777C/L780C/N521C); assay: TEVC recordings in Xenopus oocytes, zinc sensitivity; assay type: cell-based
T5 construct: For full-length multimeric membrane-embedded receptors studied in cellulo, as done in the present work; expressed in transfected cells; host or cells: Xenopus laevis oocytes
T5 sequence (Q00959 23-1464 E516C/L780C, other chains not shown): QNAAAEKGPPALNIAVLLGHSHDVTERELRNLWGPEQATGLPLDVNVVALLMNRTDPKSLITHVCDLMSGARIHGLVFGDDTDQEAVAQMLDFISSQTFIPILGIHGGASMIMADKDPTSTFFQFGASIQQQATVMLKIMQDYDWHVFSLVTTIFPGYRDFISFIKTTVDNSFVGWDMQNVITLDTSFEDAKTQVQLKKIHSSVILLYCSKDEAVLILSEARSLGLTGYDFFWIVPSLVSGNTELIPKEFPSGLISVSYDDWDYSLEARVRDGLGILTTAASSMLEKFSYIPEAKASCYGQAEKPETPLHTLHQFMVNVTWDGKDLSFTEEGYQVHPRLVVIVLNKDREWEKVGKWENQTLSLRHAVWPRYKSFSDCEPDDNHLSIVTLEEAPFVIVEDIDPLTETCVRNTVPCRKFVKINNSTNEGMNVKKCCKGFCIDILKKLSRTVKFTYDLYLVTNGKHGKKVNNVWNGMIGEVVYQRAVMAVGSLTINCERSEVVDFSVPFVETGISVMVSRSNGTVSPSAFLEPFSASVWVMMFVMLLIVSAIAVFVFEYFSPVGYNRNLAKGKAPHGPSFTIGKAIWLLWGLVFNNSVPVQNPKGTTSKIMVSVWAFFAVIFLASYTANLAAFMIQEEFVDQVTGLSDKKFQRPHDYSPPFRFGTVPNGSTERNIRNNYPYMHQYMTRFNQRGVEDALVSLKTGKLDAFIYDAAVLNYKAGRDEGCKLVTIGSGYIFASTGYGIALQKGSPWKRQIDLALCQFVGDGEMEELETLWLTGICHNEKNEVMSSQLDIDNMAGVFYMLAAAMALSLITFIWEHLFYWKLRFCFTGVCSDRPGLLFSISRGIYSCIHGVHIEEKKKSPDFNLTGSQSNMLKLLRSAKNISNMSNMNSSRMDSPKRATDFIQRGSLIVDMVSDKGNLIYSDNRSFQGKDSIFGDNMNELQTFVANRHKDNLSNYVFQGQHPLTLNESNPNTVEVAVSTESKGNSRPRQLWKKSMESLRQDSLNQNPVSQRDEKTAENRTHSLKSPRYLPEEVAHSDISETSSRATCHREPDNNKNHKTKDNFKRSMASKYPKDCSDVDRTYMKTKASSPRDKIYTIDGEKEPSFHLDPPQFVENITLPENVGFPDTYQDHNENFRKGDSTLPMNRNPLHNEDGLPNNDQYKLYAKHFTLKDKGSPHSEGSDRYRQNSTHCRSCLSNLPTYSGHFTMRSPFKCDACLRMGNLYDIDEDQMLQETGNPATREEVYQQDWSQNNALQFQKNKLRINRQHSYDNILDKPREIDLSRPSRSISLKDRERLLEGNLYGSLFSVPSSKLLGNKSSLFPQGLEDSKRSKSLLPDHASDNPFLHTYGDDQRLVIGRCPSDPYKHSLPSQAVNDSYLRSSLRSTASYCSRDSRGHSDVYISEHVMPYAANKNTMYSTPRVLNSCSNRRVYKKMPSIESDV
Description: as §1, §2, §3, §4

[Zn+2] [zinc]
Zn2+ Hill slope (nH) [1]: 0.64 ± 0.10 and 0.70 ± 0.03 and 0.77 ± 0.05
Izn/Io 1 nM [1]: 0.90 ± 0.01 and 0.90 ± 0.05 and 0.86 ± 0.08
Izn/Io 1 nM ([1]; +GNE (100 µM GNE-3419)): 0.97 ± 0.02
Izn/Io 10 nM [1]: 0.68 ± 0.01 and 0.68 ± 0.04 and 0.68 ± 0.07
Izn/Io 10 nM ([1]; +GNE (100 µM GNE-3419)): 0.88 ± 0.05
Izn/Io 50 nM [1]: 0.45 ± 0.02 and 0.45 ± 0.05
Izn/Io 50 nM ([1]; +GNE (100 µM GNE-3419)): 0.76 ± 0.08
Izn/Io 500 nM [1]: 0.31 ± 0.02 and 0.33 ± 0.04
Izn/Io 500 nM ([1]; +GNE (100 µM GNE-3419)): 0.65 ± 0.07
Izn/Io 1000 nM [1]: 0.30 ± 0.06 and 0.28 ± 0.04 and 0.30 ± 0.03
Izn/Io 1000 nM ([1]; +GNE (100 µM GNE-3419)): 0.58 ± 0.02
Zn2+ maximal inhibition ([1]; fraction): 0.74 ± 0.05
Zn2+ Hill slope (nH) ([1]; in the presence of 100 µM GNE-3419): 0.62 ± 0.17
IC50 ([1]; read-out: Zn2+ IC50): 0.012 µM and 0.0153 µM and 0.013 µM
IC50 ([2]; after UV): 0.00769 ± 0.00017 µM
IC50 ([2]; before UV): 0.00743 ± 0.0011 µM
Izn/Io 1 nM ([3]; +UV): 0.94 ± 0.01
Izn/Io 1 nM ([3]; -UV): 0.91 ± 0.02
Izn/Io 10 nM ([3]; +UV): 0.70 ± 0.02
Izn/Io 10 nM ([3]; -UV): 0.60 ± 0.01
Izn/Io 1000 nM ([3]; +UV): 0.48 ± 0.04
Izn/Io 1000 nM ([3]; -UV): 0.30 ± 0.03
Zn2+ Hill slope (nH) ([3]; after UV): 1.05 ± 0.07
Zn2+ maximal inhibition ([3]; after UV): 0.52 ± 0.04
Zn2+ Hill slope (nH) ([3]; before UV): 0.99 ± 0.09
Zn2+ maximal inhibition ([3]; before UV): 0.70 ± 0.03
IC50 ([4]; after UV): 7.96 ± 0.16 µM
IC50 ([4]; before UV): 0.54 ± 0.01 µM
Zn2+ Hill slope (nH) [5]: 0.40 ± 0.11
Zn2+ maximal inhibition [5]: 0.37 ± 0.04
Izn/Io 1 nM ([5]; 1 nM zinc): 0.86 ± 0.01
Izn/Io 5 nM ([5]; 5 nM zinc): 0.81 ± 0.02
Izn/Io 50 nM ([5]; 50 nM zinc): 0.72 ± 0.03
Izn/Io 500 nM ([5]; 500 nM zinc): 0.66 ± 0.04
Izn/Io 1000 nM ([5]; 1000 nM zinc): 0.68 ± 0.01
IC50 ([5]; read-out: Zn2+ IC50): 0.00344 ± 0.00203 µM
